# Experimental data from US4634783A, “Novel amidine compound” (Torii & Co. Ltd., priority 1983, dated 1987).
# Experiments:
# Trypsin = target: T1, Trypsin (Bos taurus, UniProt P00760); assay: anti-trypsin activity (hydrolysis of TAME); type: biochemical; conditions: read-out: ID50 Trypsin
# T1 sequence (P00760 24-246): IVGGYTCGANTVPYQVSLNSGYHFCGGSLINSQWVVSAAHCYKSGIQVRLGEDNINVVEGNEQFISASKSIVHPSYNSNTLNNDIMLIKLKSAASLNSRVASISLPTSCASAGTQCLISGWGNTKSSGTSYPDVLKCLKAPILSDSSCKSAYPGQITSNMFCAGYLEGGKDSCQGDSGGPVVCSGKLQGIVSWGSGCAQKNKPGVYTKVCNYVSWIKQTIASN
# Experimental: (§1) The anti-trypsin, anti-plasmin, anti-kallikrein and anti-thrombin activities were determined according to the method of Muramatsu et al. [M. Muramatsu, T. Onishi, S. Makino, Y. Hayashi and S. Fujii, J. of Biochem., 58, 214 (1965)]. […] The compound No. corresponds to the compound number shown in Examples.
# Plasmin = Plasmin (Homo sapiens, UniProt P00747); assay: anti-plasmin activity (hydrolysis of TAME); type: biochemical; conditions: TAME hydrolysis; read-out: ID50 Plasmin
# Experimental: as §1
# Kallikrein = assay: anti-kallikrein activity (hydrolysis of TAME); type: biochemical; conditions: for IC50: TAME hydrolysis, read-out: ID50 Kallikrein; for percentage inhibition Kallikrein: at 1×10^-5 M, figure in parentheses
# Experimental: as §1
# Thrombin = Thrombin (Homo sapiens, UniProt P00734); assay: biochemical; conditions: for IC50: TAME hydrolysis, read-out: ID50 Thrombin
# C1r = target: T2, C1r (Homo sapiens, UniProt P00736); assay: anti-C1 esterase (C1r) activity (hydrolysis of AAME); type: biochemical; conditions: AAME hydrolysis; read-out: ID50 C1r
# T2 sequence (P00736 464-705 limits assumed): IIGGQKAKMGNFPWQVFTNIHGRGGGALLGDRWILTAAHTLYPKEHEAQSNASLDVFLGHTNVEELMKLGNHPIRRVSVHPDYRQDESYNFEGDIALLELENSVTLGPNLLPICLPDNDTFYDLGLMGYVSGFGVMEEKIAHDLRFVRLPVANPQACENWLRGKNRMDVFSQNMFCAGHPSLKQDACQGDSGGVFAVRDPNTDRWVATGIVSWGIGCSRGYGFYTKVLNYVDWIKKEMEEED
# T2 sequence (P00736 18-463 limits assumed): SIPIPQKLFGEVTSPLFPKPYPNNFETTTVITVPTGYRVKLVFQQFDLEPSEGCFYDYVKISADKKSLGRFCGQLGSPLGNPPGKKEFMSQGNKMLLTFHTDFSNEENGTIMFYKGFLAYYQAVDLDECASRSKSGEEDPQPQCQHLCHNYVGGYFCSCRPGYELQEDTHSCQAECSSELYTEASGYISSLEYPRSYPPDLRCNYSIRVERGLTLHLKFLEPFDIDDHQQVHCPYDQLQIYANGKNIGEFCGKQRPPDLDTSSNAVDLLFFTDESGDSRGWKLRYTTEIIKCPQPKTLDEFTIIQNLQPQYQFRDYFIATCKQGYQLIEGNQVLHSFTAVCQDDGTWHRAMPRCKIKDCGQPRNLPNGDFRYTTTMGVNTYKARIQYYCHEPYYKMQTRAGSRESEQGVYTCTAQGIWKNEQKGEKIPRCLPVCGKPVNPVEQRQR
# Experimental: (§2) The anti-C1 esterase (C1r, C1s) activity was determined according to the method of Okamura et al. [K. Okamura, M. Muramatsu and B. Fujii, Biochem. Biophys. Acta, 295, 252-257 (1973)]. The inhibition of complement mediated hemolysis was determined according to the method of Baker et al. [B. R. Baker and E. H. Erickson, J. Med. Chem., 12, 408-414 (1969)]. The figures in Table 2 have the following meanings:
# C1r: Molar concentration of the test compound which inhibits 50% of the ability of C1r to hydrolyse AAME (acetylarginin methyl ester) (ID50).
# C1s = target: T3, C1s (Homo sapiens, UniProt P09871); assay: anti-C1 esterase (C1s) activity (hydrolysis of ATEE); type: biochemical; conditions: ATEE hydrolysis; read-out: ID50 C1s
# T3 sequence (P09871 438-688 limits assumed): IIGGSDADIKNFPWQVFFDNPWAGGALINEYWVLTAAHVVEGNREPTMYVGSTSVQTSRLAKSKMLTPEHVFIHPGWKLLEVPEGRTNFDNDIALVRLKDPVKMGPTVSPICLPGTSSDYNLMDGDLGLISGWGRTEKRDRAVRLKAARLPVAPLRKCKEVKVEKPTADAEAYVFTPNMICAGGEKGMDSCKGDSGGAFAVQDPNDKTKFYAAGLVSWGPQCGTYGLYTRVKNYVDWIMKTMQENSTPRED
# T3 sequence (P09871 16-437 limits assumed): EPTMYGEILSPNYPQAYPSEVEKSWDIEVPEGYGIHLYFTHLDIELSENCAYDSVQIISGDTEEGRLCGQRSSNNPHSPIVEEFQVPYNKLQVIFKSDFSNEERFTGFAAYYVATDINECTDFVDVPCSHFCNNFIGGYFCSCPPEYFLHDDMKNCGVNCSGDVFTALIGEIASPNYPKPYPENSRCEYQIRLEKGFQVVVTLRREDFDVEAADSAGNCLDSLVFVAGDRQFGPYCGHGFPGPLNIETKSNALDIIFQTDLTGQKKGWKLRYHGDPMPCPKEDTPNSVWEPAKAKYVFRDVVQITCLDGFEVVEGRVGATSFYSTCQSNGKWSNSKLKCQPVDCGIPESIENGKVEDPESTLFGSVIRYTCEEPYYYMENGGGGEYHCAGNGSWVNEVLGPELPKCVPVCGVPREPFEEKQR
# Experimental: as §2
# C1s: Molar concentration of the test compound which inhibits 50% of the ability of C1s to hydrolyse ATEE (acetyltyrosin ethyl ester) (ID50).
# [1] = tested on: complement mediated hemolysis; assay: inhibition of complement mediated hemolysis; type: cell-based
# Experimental: The complement mediated hemolysis is widely used as a means to determine the titration of complement. The principle of this method is based on the fact that hemolysis is caused by the activation of complement, when the latter is added to a complex (immune complex) of erythrocytes and the antibody thereof. The degree of hemolysis varies in proportion to the amount of complement added. Therefore, when a known amount of complement admixed with a C1 esterase inhibitor is used, the hemolysis must be suppressed in proportion to the inhibitory activity.
# as §2
# Inhibition of complement mediated hemolysis (%): The inhibitory activity is shown in terms of percent inhibition of the compound at varied concentrations: […]
# Chain of Plasmin (P00747 581-810 limits assumed, species assumed): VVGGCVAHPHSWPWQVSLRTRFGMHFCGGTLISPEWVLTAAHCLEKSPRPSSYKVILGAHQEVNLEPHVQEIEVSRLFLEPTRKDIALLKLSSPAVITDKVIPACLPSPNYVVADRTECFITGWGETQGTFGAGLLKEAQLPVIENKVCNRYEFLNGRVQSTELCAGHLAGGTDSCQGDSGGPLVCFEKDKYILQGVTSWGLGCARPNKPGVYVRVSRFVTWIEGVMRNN
# Chain of Plasmin (P00747 97-580 limits assumed, species assumed): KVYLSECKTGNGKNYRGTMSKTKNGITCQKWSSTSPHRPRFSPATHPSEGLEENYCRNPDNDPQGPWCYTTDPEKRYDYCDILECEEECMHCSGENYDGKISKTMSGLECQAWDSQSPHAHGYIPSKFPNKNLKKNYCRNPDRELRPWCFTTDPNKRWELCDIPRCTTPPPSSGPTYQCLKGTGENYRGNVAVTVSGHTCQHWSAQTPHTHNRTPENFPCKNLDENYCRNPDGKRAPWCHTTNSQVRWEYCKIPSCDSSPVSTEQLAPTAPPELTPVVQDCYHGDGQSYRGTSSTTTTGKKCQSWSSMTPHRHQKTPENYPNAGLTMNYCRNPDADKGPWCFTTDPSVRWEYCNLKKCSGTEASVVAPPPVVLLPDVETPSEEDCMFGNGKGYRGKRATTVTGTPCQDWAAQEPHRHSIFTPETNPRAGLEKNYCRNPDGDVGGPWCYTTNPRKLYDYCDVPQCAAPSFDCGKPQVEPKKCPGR
Structure (SMILES),IC50 (Trypsin) [nM],IC50 (Plasmin) [nM],IC50 (Kallikrein) [nM],IC50 (Thrombin) [nM],IC50 (C1r) [nM],IC50 (C1s) [nM],Inhibition of complement mediated hemolysis ([1]; 1 × 10^-4) [%],Inhibition of complement mediated hemolysis ([1]; 1 × 10^-5) [%],Inhibition of complement mediated hemolysis ([1]; 1 × 10^-6) [%],Inhibition of complement mediated hemolysis ([1]; 1 × 10^-7),percentage inhibition Kallikrein (Kallikrein),"inhibition at 10 µM (Thrombin; at 1×10^-5 M, figure in parentheses, read-out: percentage inhibition Thrombin) [%]"
"N=C(N)Nc1ccc(CCc2ccc(C(=O)Oc3ccc4cc(C(=N)N)ccc4c3)o2)cc1 [compound 2, 6-amidino-2-naphthyl 5-(p-guanidinophenylethyl)-furan-2-carboxylate]",200,400,300,500,200,400,100,100,97,89%,–,–
N=C(N)c1ccc2cc(OC(=O)c3ccco3)ccc2c1 [compound 3],400,1000,–,400,500,4000,100,100,100,100%,NE (the percentage inhibition is less than 10%),–
N=C(N)c1ccc2cc(OC(=O)c3ccoc3)ccc2c1 [compound 4],2000,1000,–,700,600,300,100,65,30,NE (the percentage inhibition is less than 10%),43%,–
N=C(N)c1ccc2cc(OC(=O)c3ccc(COCc4ccccc4)o3)ccc2c1 [compound 7],500,3000,2000,400,300,4000,100,98,96,98%,–,–
N=C(N)c1ccc2cc(OC(=O)c3ccc(CO)o3)ccc2c1 [compound 8],400,2000,4000,600,–,4000,100,100,97,92%,–,–
CC(=O)OCc1ccc(C(=O)Oc2ccc3cc(C(=N)N)ccc3c2)o1 [compound 9],500,900,2000,300,300,4000,100,100,96,77%,–,–
CSCc1ccc(C(=O)Oc2ccc3cc(C(=N)N)ccc3c2)o1 [compound 11],200,500,200,300,200,900,100,100,99,88%,–,–
COc1ccc2[nH]c(C(=O)Oc3ccc4cc(C(=N)N)ccc4c3)cc2c1 [compound 33],200,2000,10000,–,2000,2000,–,–,–,–,–,40
